The values that follow come from PMC8286840, “Identifying SARS-CoV-2 antiviral compounds by screening for small molecule inhibitors of Nsp3 papain-like protease” (Biochemical Journal, 2021).

Experiment [1] deals with T1, SARS-CoV-2 PLpro (nsp3 1564–1878) (Severe acute respiratory syndrome coronavirus 2, UniProt P0DTD1). Nature of the experiment: biochemical. Also noted: FRET-quenched peptide (Pro3) cleavage by PLpro, 10 min pre-incubation, slope over 20 min, normalised to no-compound control. The following applies: low concentration screen.
Experiment [2] has as its target T1, SARS-CoV-2 PLpro (nsp3 1564–1878). Put plainly: biochemical. The arrangement: FRET-quenched peptide (Pro3) cleavage by PLpro, 10 min pre-incubation, slope over 20 min, normalised to no-compound control. The following applies: high concentration screen.
[3] abbreviates: Well no.=5634, read-out: % of control remaining.
Setting [4] is: Well no.=5969, read-out: % of control remaining.
The mark [5] stands for this setting: Well no.=5556, read-out: % of control remaining.
[6] abbreviates: Well no.=5526, read-out: % of control remaining.
Setting [7] is: Well no.=6014, read-out: % of control remaining.
Where [8] appears, read: Well no.=6149, read-out: % of control remaining.
The mark [9] stands for this setting: Well no.=295, read-out: % of control remaining.
[10] abbreviates: Well no.=309, read-out: % of control remaining.
Setting [11] is: Well no.=6203, read-out: % of control remaining.
The mark [12] stands for this setting: Well no.=5181, read-out: % of control remaining.
Where [13] appears, read: Well no.=6349, read-out: % of control remaining.
Setting [14] is: read-out: % of control remaining, Well no.=149.
Where [15] appears, read: Well no.=2119, read-out: % of control remaining.
The mark [16] stands for this setting: Well no.=305, read-out: % of control remaining.
[17] abbreviates: Well no.=154, read-out: % of control remaining.
Where [18] appears, read: Well no.=2397, read-out: % of control remaining.
Setting [19] is: Well no.=594, read-out: % of control remaining.
The mark [20] stands for this setting: Well no.=6679, read-out: % of control remaining.
Where [21] appears, read: Well no.=7687, read-out: % of control remaining.
Setting [22] is: Well no.=750, read-out: % of control remaining.
Setting [23] is: Well no.=6723, read-out: % of control remaining.
Setting [24] is: Well no.=426, read-out: % of control remaining.
The mark [25] stands for this setting: Well no.=6729, read-out: % of control remaining.
Where [26] appears, read: Well no.=6876, read-out: % of control remaining.
Where [27] appears, read: Well no.=1237, read-out: % of control remaining.
Setting [28] is: Well no.=4432, read-out: % of control remaining.
Setting [29] is: Well no.=1428, read-out: % of control remaining.
The mark [30] stands for this setting: Well no.=608, read-out: % of control remaining.
[31] abbreviates: Well no.=6739, read-out: % of control remaining.
Where [32] appears, read: Well no.=776, read-out: % of control remaining.
Setting [33] is: Well no.=3342, read-out: % of control remaining.
Setting [34] is: Well no.=4357, read-out: % of control remaining.
Setting [35] is: Well no.=998, read-out: % of control remaining.

Structures can show the parent of a compound that is named as a salt. Where two headings read alike, the source gives them in different places.

For `CC1(C)CC(=O)C2=C(C1)NC(=S)NC2c1cccc(O)c1` (stereo not drawn) [4-(3-hydroxyphenyl)-7,7-dimethyl-2-thioxo-2,3,4,6,7,8-hexahydro-5(1H)-quinazolinone], in experiment [1] (setting [3]), the remaining activity at 1.25 µM stood at 94.5%. For the same compound, the remaining activity at 3.75 µM in experiment [2] (setting [3]) amounted to 95.1%.
As to `Cc1ccc(-c2n[nH]c3c2C(c2cccc(O)c2)N(c2ccc(C(=O)O)cc2)C3=O)cc1` (stereo not drawn) [4-(4-(3-hydroxyphenyl)-3-(4-methylphenyl)-6-oxo-4,6-dihydropyrrolo[3,4-c]pyrazol-5(1H)-yl)benzoic acid], the remaining activity at 1.25 µM in experiment [1] (setting [4]) is 100%. In experiment [2] (setting [4]), the remaining activity at 3.75 µM turned out to be 97.4%.
Consider `CN1c2cc3c(cc2N=C(c2ccc(C(=O)O)cc2)c2ccccc21)C(C)(C)CCC3(C)C` [4-(5,7,7,10,10-pentamethyl-7,8,9,10-tetrahydro-5H-naphtho[2,3-b][1,4]benzodiazepin-13-yl)benzoic acid], for which the remaining activity at 1.25 µM in experiment [1] (setting [5]) worked out at 104%. The remaining activity at 3.75 µM in experiment [2] (setting [5]) stood at 100%.
Take `O=C(O)c1ccc(SC2=NS(=O)(=O)c3ccccc32)cc1` [4-((1,1-dioxidobenzo[d]isothiazol-3-yl)thio)benzoic acid]: the remaining activity at 1.25 µM in experiment [1] (setting [6]) came out at 97.8%. Moreover, in experiment [2] (setting [6]), the remaining activity at 3.75 µM amounted to 102%.
In the case of `c1ccc(C(OC2CCN(CCCc3nn[nH]n3)CC2)c2ccccc2)cc1` [4-(benzhydryloxy)-1-[3-(1H-tetraazol-5-yl)propyl]piperidine], the remaining activity at 1.25 µM in experiment [1] (setting [7]) was determined as 95.5%. Moreover, in experiment [2] (setting [7]), the remaining activity at 3.75 µM came to 93.3%.
Turning to `CC(=O)NCCCC(=O)O` [4-Acetamidobutanoic acid], the remaining activity at 1.25 µM in experiment [1] (setting [8]) worked out at 110%. For the same compound, the remaining activity at 3.75 µM in experiment [2] (setting [8]) was 106%.
For the compound `Nc1ccc2c3c(cccc13)C(=O)NC2=O` [4-Amino-1,8-naphthalimide], the remaining activity at 1.25 µM in experiment [1] (setting [9]) was found to be 103%. In addition, in experiment [2] (setting [9]), the remaining activity at 3.75 µM turned out to be 92.9%.
Turning to `N=C(N)c1ccc(N)cc1` [4-Aminobenzamidine dihydrochloride], in experiment [1] (setting [10]), the remaining activity at 1.25 µM was found to be 91.8%. Besides, the remaining activity at 3.75 µM in experiment [2] (setting [10]) was found to be 92.5%.
As for `Nc1ccc(C(=O)O)cc1` [4-Aminobenzoic acid], in experiment [1] (setting [11]), the remaining activity at 1.25 µM turned out to be 97.3%. Also, the remaining activity at 3.75 µM in experiment [2] (setting [11]) came out at 101%.
Turning to `Nc1ccc(C(=O)NCC(=O)O)cc1` [4-Aminohippuric Acid], the remaining activity at 1.25 µM worked out at 95.9% in experiment [1] (setting [12]) and 105% in experiment [1] (setting [13]). Further, the remaining activity at 3.75 µM in experiment [2] (setting [12]) was 95.3%; in experiment [2] (setting [13]) it was 103%.
As for `Nc1ccncc1` [4-Aminopyridine], the remaining activity at 1.25 µM in experiment [1] (setting [14]) was 104%. Besides, the remaining activity at 3.75 µM in experiment [2] (setting [14]) is 104%.
In the case of `Nc1ccc(C(=O)O)c(O)c1` [4-Aminosalicylic acid], the remaining activity at 1.25 µM in experiment [1] (setting [15]) was 99.3%. Also, the remaining activity at 3.75 µM in experiment [2] (setting [15]) amounted to 101%.
As for `C[C@]12CCC(=O)C(O)=C1CC[C@@H]1[C@@H]2CC[C@]2(C)C(=O)CC[C@@H]12` [4-Androsten-4-ol-3,17-dione], in experiment [1] (setting [16]), the remaining activity at 1.25 µM worked out at 96.5%. The remaining activity at 3.75 µM in experiment [2] (setting [16]) was found to be 93.5%.
Regarding `C[C@]12CCC(=O)C=C1CC[C@@H]1[C@@H]2CC[C@]2(C)C(=O)CC[C@@H]12` [4-Androstene-3,17-dione], the remaining activity at 1.25 µM in experiment [1] (setting [17]) was found to be 103%. The remaining activity at 3.75 µM in experiment [2] (setting [17]) amounted to 99.2%.
Take `Cc1ncc2ccccc2c1C#N` [4-Cyano-3-methylisoquinoline]: in experiment [1] (setting [18]), the remaining activity at 1.25 µM came out at 97.4%. In addition, the remaining activity at 3.75 µM in experiment [2] (setting [18]) was 95.8%.
As for `O=C(OC1CCN(CCCl)CC1)C(c1ccccc1)c1ccccc1` [4-Diphenylacetoxy-N-(2-chloroethyl)piperidine hydrochloride], in experiment [1] (setting [19]), the remaining activity at 1.25 µM was found to be 92.6%. Besides, in experiment [2] (setting [19]), the remaining activity at 3.75 µM turned out to be 92.6%.
In the case of `CCc1ccc(O)cc1` [4-Ethylphenol], the remaining activity at 1.25 µM in experiment [1] (setting [20]) amounted to 103%. The remaining activity at 3.75 µM in experiment [2] (setting [20]) is 104%.
As for `NC(N)=NCCCC(=O)O` [4-Guanidinobutanoic acid], the remaining activity at 1.25 µM in experiment [1] (setting [21]) was 108%. For the same compound, the remaining activity at 3.75 µM in experiment [2] (setting [21]) is 106%.
As for `COc1cc(CC(=O)O)ccc1O` [4-Hydroxy-3-methoxyphenylacetic acid], the remaining activity at 1.25 µM in experiment [1] (setting [22]) amounted to 99.7%. Moreover, the remaining activity at 3.75 µM in experiment [2] (setting [22]) worked out at 97.2%.
Take `Cc1cc(C(=O)O)ccc1O` [4-Hydroxy-3-methylbenzoic acid]: the remaining activity at 1.25 µM in experiment [1] (setting [23]) worked out at 100%. Moreover, the remaining activity at 3.75 µM in experiment [2] (setting [23]) stood at 101%.
`NNC(=O)c1ccc(O)cc1` [4-Hydroxybenzhydrazide]: in experiment [1] (setting [24]), the remaining activity at 1.25 µM is 97.3%. Further, in experiment [2] (setting [24]), the remaining activity at 3.75 µM amounted to 97%.
For the compound `O=C(O)c1ccc(O)cc1` [4-Hydroxybenzoic acid], the remaining activity at 1.25 µM in experiment [1] (setting [25]) was determined as 108%. The remaining activity at 3.75 µM in experiment [2] (setting [25]) is 105%.
Consider `OCc1ccc(O)cc1` [4-Hydroxybenzyl alcohol], for which, in experiment [1] (setting [26]), the remaining activity at 1.25 µM was 98.2%. For the same compound, the remaining activity at 3.75 µM in experiment [2] (setting [26]) was 95.1%.
As for `NCCc1ccc(O)cc1` [4-Hydroxyphenethylamine hydrochloride], the remaining activity at 1.25 µM in experiment [1] (setting [27]) amounted to 101%. The remaining activity at 3.75 µM in experiment [2] (setting [27]) came to 102%.
As to `CC1=C(/C=C/C(C)=C/C=C/C(C)=C/C(=O)Nc2ccc(O)cc2)C(C)(C)CCC1` [4-Hydroxyphenylretinamide], in experiment [1] (setting [28]), the remaining activity at 1.25 µM turned out to be 99%. Moreover, the remaining activity at 3.75 µM in experiment [2] (setting [28]) is 97.3%.
Consider `O=C(O)/C=C/c1cnc[nH]1` [4-Imidazoleacrylic acid], for which, in experiment [1] (setting [29]), the remaining activity at 1.25 µM is 95.1%. The remaining activity at 3.75 µM in experiment [2] (setting [29]) came out at 98.1%.
Consider `OCc1cnc[nH]1` [4-Imidazolemethanol hydrochloride], for which the remaining activity at 1.25 µM in experiment [1] (setting [30]) was 97.2%. In addition, in experiment [2] (setting [30]), the remaining activity at 3.75 µM stood at 96.7%.
For the compound `Cc1ccc(O)c(O)c1` [4-Methylcatechol], the remaining activity at 1.25 µM in experiment [1] (setting [31]) came to 106%. Besides, the remaining activity at 3.75 µM in experiment [2] (setting [31]) came to 108%.
Regarding `Cc1cn[nH]c1` [4-Methylpyrazole hydrochloride], the remaining activity at 1.25 µM in experiment [1] (setting [32]) was found to be 98.4%. For the same compound, in experiment [2] (setting [32]), the remaining activity at 3.75 µM is 99.2%.
With `Cc1cc(=O)oc2cc(O)ccc12` [4-Methylumbelliferone], in experiment [1] (setting [33]), the remaining activity at 1.25 µM came to 94%. In addition, the remaining activity at 3.75 µM in experiment [2] (setting [33]) stood at 91.9%.
As for `CCCCCCCCCCOCCC(=O)O` [4-Oxatetradecanoic acid], the remaining activity at 1.25 µM in experiment [1] (setting [34]) turned out to be 101%. The remaining activity at 3.75 µM in experiment [2] (setting [34]) was 107%.
For `N#Cc1c(-c2ccccc2)no[n+]1[O-]` [4-Phenyl-3-furoxancarbonitrile], the remaining activity at 1.25 µM in experiment [1] (setting [35]) worked out at 97.8%. Also, the remaining activity at 3.75 µM in experiment [2] (setting [35]) came to 97.8%.
